PMC11304383 (Molecular Pharmaceutics, 2024)
Converted amounts (≈) assume the structure as drawn. Read-outs that look alike come from different tables or passages of the source.

What was measured:
[1] = Thermodynamic solubility, shake flask method; assay type: physicochemical; settings: phosphate buffer 50 mM pH 6.8, 24 h, 37 °C; read-out: thermodynamic solubility of CRT
Method: Excess amounts of CRT and CAMs were added to solubility vials (2 mL) containing the buffer. These vials were then subjected to agitation on an orbital shaker for 24 h at 37 °C and 120 rpm. After this incubation period, the pH of the samples was checked and adjusted if necessary just before centrifugation. Centrifugation was carried out at 37 °C, 10,000 rpm, for 10 min, trailed by the collection of the supernatant and its dilution using the mobile phase. The samples were then analyzed by using the HPLC method described below. This experimental procedure was conducted in triplicate (n = 3).
The Shimadzu Prominence UHPLC with a UV detector was used for the analysis. A GraceSmart Brava BDS-C18 column (250 mm × 4.6 mm × 5 μm) was used for chromatographic separation. The mobile phase was given in a gradient manner with 42:50:8% v/v methanol:25 mM phosphate buffer pH 3.0:ACN for 5 min and 50:50% v/v acetonitrile:25 mM phosphate buffer pH 3.0 for 17 min at a flow rate of 1 mL/min.

[2] = Amorphous solubility, solvent quench method; assay type: physicochemical; settings: higher in distilled water
Method: The amorphous solubility of CRT was measured using the solvent quench method, which employed methanol and HPMC as the solvent and crystallization inhibitor, respectively. […] The detailed amorphous solubility methodology can be found in Shete et al. (2021).[39]

A549 cells [3] = assay: SRB (sulforhodamine B) cytotoxicity assay; assay type: cell-based; settings: Homo sapiens, read-out: IC50 value
Method: A cell suspension was made based on cell count, and 5000 cells were seeded per well in a 96-well plate. […] The SRB assay was performed after a 48 h incubation […], and the absorbance at 540 nm was determined using a plate reader.[40]

A549 cells [4] = assay: Cell cycle analysis by flow cytometry (propidium iodide); assay type: cell-based, human; settings: individual IC50 concentrations, 48 h
Method: Exponentially growing cells were detached from T-25 cell culture flasks using trypsin and then transferred to sterile Petri plates. The cells were allowed to attach and grow for approximately 24 h. After the attachment period, different treatments were applied to the cells, and the plates were further incubated for 48 h. The media was removed after 48 h of incubation, and the plates were rinsed two times with phosphate buffer. After that, the cells were trypsinized and centrifuged at 4 °C. After centrifugation, the pellet was fixed in 70% ice-cold ethanol for 30 min at 4 °C. The resulting pellet was resuspended in Dulbecco’s phosphate-buffered saline (PBS) to wash the cells. After another round of centrifugation, the supernatant was removed and the pellet was redispersed in a staining solution consisting RNase, propidium iodide, and NP-40. For 20 min, the cell suspension was incubated in the dark at room temperature. The cells were then analyzed with a BD Accuri C6 flow cytometer (BD Biosciences, San Jose, CA, USA).[42]

[5] = Oral pharmacokinetic study; assay type: in vivo, male Wistar rats; settings: single oral dose 15 mg/kg
Method: Pharmacokinetic studies were conducted by following the CPCSEA guidelines. MAHE-IAEC (IAEC/KMC/24/2020) approved the study. The study utilized a parallel design, with each group comprising 3 male Wistar rats weighing approximately 200 g, with a variation of ±20 g. Prior to treatment, the rats underwent a 12 h fasting period but were allowed access to water. Treatment A involved administering a dose of 15 mg/kg of CRT, suspended in a 0.5% (w/v) carboxyl methyl cellulose (CMC) aqueous solution. Treatment B consisted of a 15 mg/kg equivalent CRT CAMs suspension prepared in a 0.5% (w/v) CMC vehicle. The animals received 1 mL of the suspension orally via oral gavage. The interested readers are directed to the pharmacokinetic study reported by Yarlagadda et al. (2023) for detailed methodology.[38]

CYP3A = test system: CYP3A; set-up: method as in PMID 33394101; settings: 33 adult NSCLC patients; cited from earlier work
CYP2C9 = test system: CYP2C9; set-up: method as in PMID 33394101; settings: 33 adult NSCLC patients; cited from earlier work
[6] = set-up: method as in doi:10.1021/acs.cgd.7b01027; settings: cited from earlier work
[7] = set-up: method as in doi:10.1007/s12247-019-09381-9; settings: cited from earlier work
P-gp = test system: P-gp; set-up: method as in doi:10.1016/j.jddst.2022.103431; settings: read-out: IC50 value of NRG for P-gp inhibition; cited from earlier work
[8] = male, Wistar, rat, plasma, n = 3

SMILES: Cc1cc(Nc2ncc(Cl)c(Nc3ccccc3S(=O)(=O)C(C)C)n2)c(OC(C)C)cc1C1CCNCC1 [CRT, ceritinib]
- solubility thermodynamic at 24 h [1]: 3.3 µg/mL (≈ 5.91 µM)
- amorphous solubility of CRT, distilled water versus pH 6.8 phosphate buffer [2]: approximately threefold
- IC50 (A549 cells [3]; A549, 48 h): 3.53 µM
- %G1 (percentage of cells in G0/G1 phase) (A549 cells [4]): 47.1%
- %G2 (percentage of cells in G2/M phase) (A549 cells [4]): 23.9%
- Cmax ([5]; male, Wistar, rat, plasma, po, 15 mg/kg, n = 3, read-out: Cmax of CRT): 173 ng/mL
- MRT [5, 8]: 20.2 ± 0.75 h
- Tmax [5, 8]: 6 h
- half-life [5, 8]: 22.1 h
- AUC(0-t) ([5]; male, Wistar, rat, plasma, n = 3, 72 h, read-out: AUC0–t of CRT): 3580 ± 218 ng·h/mL
- Cmax of CRT ([5]; n = 3, 15 mg/kg): 173.26 ± 5.34 ng/mL
- enhancement of AUC of midazolam by CRT versus midazolam alone (CYP3A): 5.42 fold
- enhancement of Cmax of midazolam by CRT versus midazolam alone (CYP3A): 1.82 fold
- improvement of AUC of S-warfarin by CRT (CYP2C9): 56%
- excess enthalpy of CRT in water [6]: -0.844 kcal/mol

SMILES: C[C@@H]1O[C@@H](O[C@H]2[C@H](Oc3cc(O)c4c(c3)O[C@H](c3ccc(O)cc3)CC4=O)O[C@H](CO)[C@@H](O)[C@@H]2O)[C@H](O)[C@H](O)[C@H]1O [NRG, naringin]
- IC50 (A549 cells [3]; A549, SRB, 48 h incubation): 162 µM
- glass transition event temperature [7]: 167 °C
- IC50 (P-gp): 2400 µM
